Patent US12398154B2, “Azaquinazoline pan-KRas inhibitors” (Mirati Therapeutics, Inc., priority 2020, dated 2025)
pIC50: −log10 of the molar value.

Experiments:
Experiment in all cases: biochemical
KRas G12V = KRas G12V (Homo sapiens, UniProt P01116, G12V);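 note: KRas binding measured by TR-FRET displacement at room temperature, IC50 fitted from percent of control values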
Description: (§1) The ability of a compound to bind to KRas was measured using a TR-FRET displacement assay. […] After a 60-minute incubation at room temperature, the reaction was measured using a BMG LABTECH CLARIO star Plus via TR-FRET. […] The POC values were fit to a 4-parameter IC50 equation and the IC50 value reported.

KRas G12C = KRas G12C (Homo sapiens, UniProt P01116, G12C);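 note: binding to KRas assessed by TR-FRET displacement after one hour incubation at room temperature, potency fitted from percent-of-control values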
Sequence of KRas G12C (P01116 1-169 isoform P01116-2 G12C): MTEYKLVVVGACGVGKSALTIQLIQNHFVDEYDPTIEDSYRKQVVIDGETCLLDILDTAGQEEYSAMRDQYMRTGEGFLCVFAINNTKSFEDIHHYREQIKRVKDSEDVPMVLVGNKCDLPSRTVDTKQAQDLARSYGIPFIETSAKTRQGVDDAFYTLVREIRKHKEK
Description: as §1

KRas G12A = KRas G12A (Homo sapiens, UniProt P01116, G12A);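 note: binding to KRas measured by TR-FRET displacement after one hour at room temperature, IC50 from a four-parameter fit of percent-of-control values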
Sequence of KRas G12A (P01116 1-169 isoform P01116-2 G12A): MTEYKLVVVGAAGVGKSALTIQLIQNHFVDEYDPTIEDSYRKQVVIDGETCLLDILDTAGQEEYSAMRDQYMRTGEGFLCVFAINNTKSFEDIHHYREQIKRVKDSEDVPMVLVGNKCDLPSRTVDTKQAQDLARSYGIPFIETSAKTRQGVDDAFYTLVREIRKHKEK
Description: as §1

KRas G12R = KRas G12R (Homo sapiens, UniProt P01116, G12R);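 note: TR-FRET displacement assay of compound binding to KRas, read after one hour at room temperature, potency from a four-parameter fit of percent-of-control values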
Sequence of KRas G12R (P01116 1-169 isoform P01116-2 G12R): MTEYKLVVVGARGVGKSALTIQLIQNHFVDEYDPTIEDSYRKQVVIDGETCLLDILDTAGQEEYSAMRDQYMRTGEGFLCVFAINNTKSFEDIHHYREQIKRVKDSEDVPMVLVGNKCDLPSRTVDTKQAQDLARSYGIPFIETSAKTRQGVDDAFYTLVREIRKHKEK
Description: as §1

KRas G12D = KRas G12D (Homo sapiens, UniProt P01116, G12D);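 note: TR-FRET displacement binding assay on KRas, read after a one-hour incubation at room temperature, IC50 fitted from percent-of-control values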
Sequence of KRas G12D (P01116 1-169 isoform P01116-2 G12D): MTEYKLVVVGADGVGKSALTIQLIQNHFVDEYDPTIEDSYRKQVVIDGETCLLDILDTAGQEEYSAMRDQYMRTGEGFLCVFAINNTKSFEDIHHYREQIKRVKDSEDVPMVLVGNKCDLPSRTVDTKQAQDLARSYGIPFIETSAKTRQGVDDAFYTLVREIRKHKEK
Description: as §1

KRas WT = KRas WT (Homo sapiens, UniProt P01116);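 note: binding to KRas read as TR-FRET displacement after a one-hour room-temperature incubation, IC50 derived from percent-of-control values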
Sequence of KRas WT (P01116 1-169 isoform P01116-2): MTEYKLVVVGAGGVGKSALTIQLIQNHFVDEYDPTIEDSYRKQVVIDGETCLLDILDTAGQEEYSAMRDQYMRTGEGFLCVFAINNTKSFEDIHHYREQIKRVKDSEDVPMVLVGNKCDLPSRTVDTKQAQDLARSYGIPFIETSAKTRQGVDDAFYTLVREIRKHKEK
Description: as §1

KRas G12S = KRas G12S (Homo sapiens, UniProt P01116, G12S);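 note: TR-FRET displacement binding to KRas, read after one hour incubation at room temperature, IC50 from four-parameter fit of percent of control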
Sequence of KRas G12S (P01116 1-169 isoform P01116-2 G12S): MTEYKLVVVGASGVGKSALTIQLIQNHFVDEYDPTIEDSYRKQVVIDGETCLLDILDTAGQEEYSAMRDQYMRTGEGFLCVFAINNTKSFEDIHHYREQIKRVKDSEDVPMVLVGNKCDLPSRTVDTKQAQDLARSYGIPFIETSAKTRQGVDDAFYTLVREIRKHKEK
Description: as §1

Sequence of KRas G12V (P01116 1-169 isoform P01116-2 G12V): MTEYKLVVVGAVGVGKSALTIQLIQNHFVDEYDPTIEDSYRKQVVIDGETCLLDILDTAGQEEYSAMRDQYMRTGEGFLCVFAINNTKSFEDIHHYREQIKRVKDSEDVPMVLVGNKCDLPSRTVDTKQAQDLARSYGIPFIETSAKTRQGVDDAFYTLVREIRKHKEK

| Compound | pIC50 (KRas G12V) | pIC50 (KRas G12C) | pIC50 (KRas G12A) | pIC50 (KRas G12R) | pIC50 (KRas G12D) | pIC50 (KRas WT) | pIC50 (KRas G12S) |
| --- | --- | --- | --- | --- | --- | --- | --- |
| CCc1cccc2cccc(-c3ncc4c(N5CCCC(CS(N)(=O)=O)C5)nc(OCC56CCCN5CCC6)nc4c3F)c12 (stereo not shown) [Example 285, 1-(1-(7-(8-ethylnaphthalen-1-yl)-8-fluoro-2-((tetrahydro-1H-pyrrolizin-7a(5H)-yl)methoxy)pyrido[4,3-d]pyrimidin-4-yl)piperidin-3-yl)methanesulfonamide] | 6.06 | 6.37 | 6.44 | 6.46 | 6.01 | 6.49 | 6.44 |
| CCc1cccc2cccc(-c3ncc4c(N5CCCC6(CNC(=O)C6)C5)nc(OCC56CCCN5CCC6)nc4c3F)c12 (stereo not shown) [Example 286, 7-(7-(8-ethylnaphthalen-1-yl)-8-fluoro-2-((hexahydro-1H-pyrrolizin-7a-yl)methoxy)pyrido[4,3-d]pyrimidin-4-yl)-2,7-diazaspiro[4.5]decan-3-one] | 6.28 | 6.39 | 6.43 | 6.17 | 6.50 | 6.22 | 6.39 |
| CCc1cccc2cccc(-c3ncc4c(NCc5cn[nH]c5)nc(OCC56CCCN5CCC6)nc4c3F)c12 [Example 287, N-((1H-pyrazol-4-yl)methyl)-7-(8-ethylnaphthalen-1-yl)-8-fluoro-2-((hexahydro-1H-pyrrolizin-7a-yl)methoxy)pyrido[4,3-d]pyrimidin-4-amine] | 6.65 | 6.49 | 6.19 | 6.65 | 5.09 | 6.08 | 6.23 |
| CCc1cccc2cccc(-c3ncc4c(N5CCCC6(CC(=O)N6)C5)nc(OCC56CCCN5CCC6)nc4c3F)c12 (stereo not shown) [Example 288, 6-(7-(8-ethylnaphthalen-1-yl)-8-fluoro-2-((hexahydro-1H-pyrrolizin-7a-yl)methoxy)pyrido[4,3-d]pyrimidin-4-yl)-1,6-diazaspiro[3.5]nonan-2-one] | 7.17 | 7.17 | 7.02 | 7.11 | 7.28 | 7.05 | 7.09 |
| CCc1cccc2cccc(-c3ncc4c(N5CCOCC(CO)C5)nc(OCC56CCCN5CCC6)nc4c3F)c12 (stereo not shown) [Example 289, (4-(7-(8-ethylnaphthalen-1-yl)-8-fluoro-2-((hexahydro-1H-pyrrolizin-7a-yl)methoxy)pyrido[4,3-d]pyrimidin-4-yl)-1,4-oxazepan-6-yl)methanol] | 6.09 | 6.39 | 6.22 | 6.12 | 5.25 | 6.09 | 6.28 |
| CCc1cccc2cccc(-c3ncc4c(N5CC6CC(O)C(C6)C5)nc(OCC56CCCN5CCC6)nc4c3F)c12 (stereo not shown) [Example 290, 3-(7-(8-ethylnaphthalen-1-yl)-8-fluoro-2-((hexahydro-1H-pyrrolizin-7a-yl)methoxy)pyrido[4,3-d]pyrimidin-4-yl)-3-azabicyclo[3,2,1]octan-6-ol] | 6.77 | 6.68 | 6.74 | 6.75 | 6.24 | 6.56 | 6.83 |
| CCc1cccc2cccc(-c3ncc4c(N5CCOCC(C)(O)C5)nc(OCC56CCCN5CCC6)nc4c3F)c12 (stereo not shown) [Example 291, 4-(7-(8-ethylnaphthalen-1-yl)-8-fluoro-2-((hexahydro-1H-pyrrolizin-7a-yl)methoxy)pyrido[4,3-d]pyrimidin-4-yl)-6-methyl-1,4-oxazepan-6-ol] | 6.56 | 6.79 | 6.64 | 6.36 | 6.85 | 6.57 | 6.72 |
| CCc1cccc2cccc(-c3ncc4c(N5CC6C(=O)NC(=O)C6C5)nc(OCC56CCCN5CCC6)nc4c3F)c12 (stereo not shown) [Example 292, 5-(7-(8-ethylnaphthalen-1-yl)-8-fluoro-2-((hexahydro-1H-pyrrolizin-7a-yl)methoxy)pyrido[4,3-d]pyrimidin-4-yl)tetrahydropyrrolo[3,4-c]pyrrole-1,3(2H,3aH)-dione] | 7.21 | 7.06 | 7.01 | 6.74 | 7.68 | 7.17 | 7.59 |
| CCc1cccc2cccc(-c3ncc4c(N5CCCC6(C5)NC(=O)NC6=O)nc(OCC56CCCN5CCC6)nc4c3F)c12 (stereo not shown) [Example 293, 7-(7-(8-ethylnaphthalen-1-yl)-8-fluoro-2-((hexahydro-1H-pyrrolizin-7a-yl)methoxy)pyrido[4,3-d]pyrimidin-4-yl)-1,3,7-triazaspiro[4.5]decane-2,4-dione] | 8.40 | 8.22 | 8.30 | 8.30 | 8.00 | 8.22 | 8.22 |
| CCc1cccc2cccc(-c3ncc4c(N5CCCC6(CNC(=O)N6)C5)nc(OCC56CCCN5CCC6)nc4c3F)c12 (stereo not shown) [Example 294, 7-(7-(8-ethylnaphthalen-1-yl)-8-fluoro-2-((hexahydro-1H-pyrrolizin-7a-yl)methoxy)pyrido[4,3-d]pyrimidin-4-yl)-1,3,7-triazaspiro[4.5]decan-2-one] | 8.05 | 7.89 | 7.89 | 7.82 | 8.05 | 7.85 | 7.92 |
| CCc1cccc2cccc(-c3ncc4c(N5CCCC(c6nc[nH]n6)C5)nc(OCC56CCCN5CCC6)nc4c3F)c12 (stereo not shown) [Example 295, 4-(3-(1H-1,2,4-triazol-3-yl)piperidin-1-yl)-7-(8-ethylnaphthalen-1-yl)-8-fluoro-2-((hexahydro-1H-pyrrolizin-7a-yl)methoxy)pyrido[4,3-d]pyrimidine] | 6.02 | 5.72 | 5.74 | 6.23 | 5.61 | 5.55 | 5.62 |
| CCc1c(F)ccc2cc(O)cc(-c3ncc4c(N5CCC[C@@](C)(O)C5)nc(C(=O)NC(C)CN(C)C)nc4c3F)c12 (stereo partly drawn) [Example 312, N-(1-(dimethylamino)propan-2-yl)-7-(8-ethyl-7-fluoro-3-hydroxynaphthalen-1-yl)-8-fluoro-4-((R)-3-hydroxy-3-methylpiperidin-1-yl)pyrido[4,3-d]pyrimidine-2-carboxamide] | 6.60 | 6.67 | 6.81 | 6.69 | 6.41 | 6.69 | 6.76 |
| C#Cc1c(F)ccc2cc(O)cc(-c3ncc4c(N5CCCC(O)C5)nc(OCCN(C)C)nc4c3F)c12 (stereo not shown) [Example 387, 1-(2-(2-(dimethylamino)ethoxy)-7-(8-ethynyl-7-fluoro-3-hydroxynaphthalen-1-yl)-8-fluoropyrido[4,3-d]pyrimidin-4-yl)piperidin-3-ol] | 6.89 | 7.02 | 6.89 | 6.90 | 6.91 | 6.97 | 6.95 |
| Cc1ccc2[nH]ncc2c1-c1ncc2c(N3CCCC(C)(O)C3)nc(OCC34CCCN3CCC4)nc2c1F (stereo not shown) [Example 430, 1-(8-fluoro-2-((hexahydro-1H-pyrrolizin-7a-yl)methoxy)-7-(5-methyl-1H-indazol-4-yl)pyrido[4,3-d]pyrimidin-4-yl)-3-methylpiperidin-3-ol] | 5.32 | 5.11 | 5.17 | 5.06 | 5.19 | 5.09 | 5.11 |
| Cc1cc(-c2ncc3c(N4CCCC(C)(O)C4)nc(OCC45CCCN4CCC5)nc3c2F)c2cn[nH]c2c1 (stereo not shown) [Example 431, 1-(8-fluoro-7-(6-methyl-1H-indazol-4-yl)-2-((tetrahydro-1H-pyrrolizin-7a(5H)-yl)methoxy)pyrido[4,3-d]pyrimidin-4-yl)-3-methylpiperidin-3-ol] | 4.80 | 4.75 | 4.71 | 4.46 | 5.02 | 4.71 | 4.71 |
| Cc1ccc(O)cc1-c1ncc2c(N3CCCC(C)(O)C3)nc(OCC34CCCN3CCC4)nc2c1F (stereo not shown) [Example 432, 1-(8-fluoro-2-((hexahydro-1H-pyrrolizin-7a-yl)methoxy)-7-(5-hydroxy-2-methylphenyl)pyrido[4,3-d]pyrimidin-4-yl)-3-methylpiperidin-3-ol] | 5.71 | 5.62 | 5.64 | 5.52 | 5.94 | 5.61 | 5.62 |
| N#CCc1cccc2cccc(-c3ncc4c(N5CCCC6(CC(=O)N6)C5)nc(OCC56CCCN5CCC6)nc4c3F)c12 (stereo not shown) [Example 434, 2-(8-(8-fluoro-2-((hexahydro-1H-pyrrolizin-7a-yl)methoxy)-4-(2-oxo-1,6-diazaspiro[3.5]nonan-6-yl)pyrido[4,3-d]pyrimidin-7-yl)naphthalen-1-yl)acetonitrile] | 5.49 | 5.46 | 5.25 | 5.35 | 5.66 | 5.29 | 5.45 |
| Cc1cc(N)nc(-c2ncc3c(N4CCC[C@@](C)(O)C4)nc(OC[C@@H]4CCCN4C)nc3c2F)c1C(F)(F)F [Example 435, (R)-1-(7-(6-amino-4-methyl-3-(trifluoromethyl)pyridin-2-yl)-8-fluoro-2-(((S)-1-methylpyrrolidin-2-yl)methoxy)pyrido[4,3-d]pyrimidin-4-yl)-3-methylpiperidin-3-ol] | 5.26 | 5.32 | 5.31 | 5.16 | 5.41 | 5.35 | 5.25 |
| NS(=O)(=O)CC1CCCN(c2nc(OCC34CCCN3CCC4)nc3c(F)c(-c4cccc5ccccc45)ncc23)C1 (stereo not shown) [Example 436] | 6.19 | 6.57 | 6.69 | 6.48 | 6.10 | 6.71 | 6.66 |
